Measured values published in publication PMC9956870, “Exploring functional and structural features of chemically related natural prenylated hydroquinone and benzoic acid from Piper crassinervium (Piperaceae) on bacterial peroxiredoxin inhibition” (PLOS ONE, 2023).

Legend:
Prx2 (HsPrx2) = target: T1, Prx2 (HsPrx2) (Homo sapiens, UniProt P32119); assay: NADPH-coupled peroxidase assay (yeast Trx system); type: biochemical
T1 construct: gene PRDX2
T1 sequence (P32119 2-198): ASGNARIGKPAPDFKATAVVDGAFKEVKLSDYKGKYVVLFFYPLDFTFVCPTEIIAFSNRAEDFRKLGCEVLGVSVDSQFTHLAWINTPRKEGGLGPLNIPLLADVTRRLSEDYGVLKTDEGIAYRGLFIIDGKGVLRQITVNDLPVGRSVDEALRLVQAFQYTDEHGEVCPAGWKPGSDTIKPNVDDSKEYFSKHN

[1] = target: T2, alkyl hydroperoxide reductase C (SeAhpC) (Staphylococcus epidermidis, UniProt Q8CMQ2); assay: NADPH-coupled peroxidase assay; type: biochemical
T2 construct: gene ahpC
T2 sequence (Q8CMQ2 1-189): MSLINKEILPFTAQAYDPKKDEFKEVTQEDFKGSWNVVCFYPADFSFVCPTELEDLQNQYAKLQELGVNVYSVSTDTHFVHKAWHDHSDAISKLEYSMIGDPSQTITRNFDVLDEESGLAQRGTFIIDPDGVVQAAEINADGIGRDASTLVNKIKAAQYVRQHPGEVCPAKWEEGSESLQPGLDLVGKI

## CCN1C(=O)C=CC1=O [NEM, N-ethylmaleimide]
Prx2 (HsPrx2)
  peroxidase initial rate: 0.02 ± 0.01 μMs^-1 (v0; untreated 0.62 ± 0.03)
[1]
  NADPH-coupled peroxidase assay: As expected for the samples subjected to NEM treatment, no peroxidase activity was detected to both enzymes
